The subject of test [1] is haloperidol-induced catalepsy in mice. Briefly: Activity on haloperidol-induced Catalepsy. Format: in vivo, mouse (male ddY). As to conditions: 10 mg/kg oral; for Total score (catalepsy): 10 animals, maximum 50 points, control 50; for Number of Animals showing remission: catalepsy score 4 points or less in 10 cases; for Remission ratio (%): haloperidol-induced catalepsy. On the procedure: Activity on haloperidol-induced Catalepsy
Parkinson's disease is a disease based on the degeneration and cell death of the nigrostriatal dopaminergic neuron. When haloperidol (dopamine D1/D2 antagonist) is administered, catalepsy is induced by the block of postsynaptic D2 receptor. This haloperidol-induced catalepsy is known as a classic model in which symptoms of Parkinson's disease are produced by drug administration [European Journal of Pharmacology, 182: 327 (1990) and U.S. Pat. No. 3,991,207].
This test was carried out using 10 animals per group of male ddY mice of 5 week age (22 to 24 g in body weight, Japan SLC). Haloperidol (manufacturedby Janssen) was suspended in 0.3% CMC and administered intraperitoneally into mice at a dose of 1.0 mg/kg. Each test compound was used by mixing it with Tween 80 and then suspending it in distilled water for injection (manufactured by Otsuka Pharmaceutical). Also, L-DOPA (manufactured by Kyowa Hakko Kogyo Co., Ltd.) and benserazide HCl (manufactured by Kyowa Hakko Kogyo Co., Ltd.) were used by suspending them in 0.3% CMC. […] All of the test compounds were administered orally in a dose of 10 mg/kg, and 100 mg/kg of L-DOPA and 25 mg/kg of benserazide were used in combination as a control drug and administered by intraperitoneal injection. The catalepsy score was evaluated by the judging criteria shown in the above-described Table 3.
The effect was judged by total catalepsy scores of 10 animals in one group (the maximum is 50 points). When the total score was 40 points or less, the activity of drugs was judged positive. The number of animals showing remission of catalepsy was expressed by the number of cases in which the catalepsy score was 4 points or less in 10 cases. The catalepsy remission ratio was expressed as the percentage of the total score in the test compound-administered group to the total score in the control group.

In the next test the target is T1, adenosine A2A receptor (Rattus norvegicus, UniProt P30543).
T1 construct: from tissue; host or cells: rat corpus striatum, washed membrane suspension
Briefly: Adenosine receptor binding activity (adenosine A2A receptor binding test), 3H-CGS 21680 binding. As to conditions: 2 h, read-out: A2A receptor inhibition ratio (%); for inhibition at 0.1 µM: 10^-7 M; for inhibition at 0.01 µM: 10^-8 M. On the procedure: Adenosine receptor binding activity (adenosine A2A receptor binding test) This test was carried out by slightly modifying the method of Bruns et al. [Molecular Pharmacology, 29: 331 (1986)].
Corpus striatum of a rat was suspended in an ice-cooled 50 mM tris(hydroxymethyl)aminomethane hydrochloride (hereinafter referred to as "Tris-HCl") buffer (pH 7.7) using Polytron Homogenizer (manufactured by Kinematica Co.). The suspension was centrifuged (50,000×g, 10 minutes), and the obtained precipitate was re-suspended in the same amount of 50 mM Tris-HCl buffer. The suspension was centrifuged under the same conditions, and the final precipitate was suspended in 50 mM Tris-HCl [containing 10 mM magnesium chloride and 0.02 unit/mg tissue of adenosine deaminase (manufactured by Sigma Co.)] to give a tissue concentration of 5 mg (wet weight)/ml.
To 1 ml of the tissue suspension thus prepared were added 50 μl of tritium-labeled CGS 21680 {^3 H-2-[p-(2-carboxyethyl)phenethylamino]-5'-N-ethylcarboxamido)adenosine: 40 Ci/mmol; manufactured by New England Nuclear Co.[The Journal of Pharmacology and Experimental Therapeutics, 251: 888 (1989)]} (final concentration:4.0 nM) and 50 μl of a test compound. The resulting mixture was allowed to stand for 120 minutes at 25° C., and then rapidly filtered by suction through a glass fiber filter (GF/C, manufactured by Whatman Co.) The filter was immediately washed three times with […] of an ice-cooled 50 mM Tris-HCl buffer, and transferred to a vial, a scintillator (EX-H , manufactured by Wako Pure Chemical Industries, Ltd.) was added thereto, and the radioactivity on the filter was determined with a liquid scintillation counter (manufactured by Packard Instrument Co.) […]
The inhibition ratio of the test compound against the A2A receptor binding (^3 H-CGS 21680 binding) was calculated by the following equation:
Inhibition ratio (%)={1-(Amount of the binding in the presence of the test compound-Amount of the nonspecific binding)/(Amount of the total binding-Amount of the nonspecific binding)}×100
(Note) Amount of the total binding means the amount of radioactivity of ^3 H-CGS 21680 bound in the absence of the test compound. Amount of the nonspecific binding means the amount of radioactivity of ^3 H-CGS 21680 bound in the presence of 100 μM cyclopentyladenosine (CPA, manufactured by Sigma Co.) Amount of the binding in the presence of the test compound means the amount of radioactivity of ^3 H-CGS 21680 bound in the presence of the test compound at various levels of concentrations.

Test [2] has as its system CGS 21680-induced catalepsy in mice. Briefly: Activity on CGS 21680-induced Catalepsy. Format: in vivo, mouse (male ddY). As to conditions: 10 mg/kg oral; for Total score (catalepsy): 10 animals, maximum 50 points, control 48; for Number of Animals showing remission: catalepsy score 4 points or less in 10 cases; for inhibition in vivo at 10 mg/kg: Mus musculus, CGS 21680-induced catalepsy, read-out: Remission ratio (%). Put shortly:
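Male ddY mice (5 weeks, 10 per group) received CGS 21680 10 μg/20 μl intracerebroventricularly; test compounds given orally at 10 mg/kg in 0.3% Tween 80 suspension. Catalepsy scored 1 h after dosing on a 4.5 cm bar; total group score (maximum 50) compared with control; ≤4 per animal counted as remission.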

T1 sequence (P30543 whole entry): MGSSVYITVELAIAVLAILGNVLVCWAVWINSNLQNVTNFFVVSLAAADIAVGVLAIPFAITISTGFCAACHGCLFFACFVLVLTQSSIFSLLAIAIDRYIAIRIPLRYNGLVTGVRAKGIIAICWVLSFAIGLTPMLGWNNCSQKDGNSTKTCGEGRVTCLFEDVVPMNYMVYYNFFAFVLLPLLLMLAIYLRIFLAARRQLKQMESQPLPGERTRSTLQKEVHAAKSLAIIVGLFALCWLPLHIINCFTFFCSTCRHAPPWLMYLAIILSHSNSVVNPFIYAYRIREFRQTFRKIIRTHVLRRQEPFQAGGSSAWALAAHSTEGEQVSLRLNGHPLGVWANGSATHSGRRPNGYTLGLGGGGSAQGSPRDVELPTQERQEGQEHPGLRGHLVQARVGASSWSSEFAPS

For `Nc1nc(N2CCN(Cc3ccccc3)CC2)cc2nc(-c3ccco3)nn12` [Compound 42, 5-Amino-7-(4-benzylpiperazinyl)2-(2-furyl)[1,2,4]triazolo[1,5-c]pyrimidine], in test [1], the “Total score (catalepsy)” value was found to be 1, the “Number of Animals showing remission” value worked out at 10 and the “Remission ratio (%)” value is 98%. Further, on adenosine A2A receptor, the inhibition at 0.1 µM is 82% and the inhibition at 0.01 µM stood at 43%. Besides, in test [2], the “Total score (catalepsy)” value is given as 12, the “Number of Animals showing remission” value was 9 and the inhibition in vivo at 10 mg/kg was 72%.
Consider `CCOC(=O)c1cnc(N)n2nc(-c3ccco3)nc12` [Compound 55, 5-Amino-8-ethoxycarbonyl-2-(2-furyl)[1,2,4]triazolo[1,5-c]pyrimidine], for which, in test [1], the “Total score (catalepsy)” value was determined as 35, the “Number of Animals showing remission” value came to 5 and the “Remission ratio (%)” value is listed as 30%. Besides, in test [2], the “Total score (catalepsy)” value amounted to 29, the “Number of Animals showing remission” value is recorded as 9 and the inhibition in vivo at 10 mg/kg was 36%.
Regarding `COc1cccc(OC)c1Oc1cc2nc(-c3ccco3)nn2c(N)n1` [Compound 32, 5-Anino-7-(2,6-dimethoxyphenoxy)-2-(2-furyl)[1,2,4]triazolo[1,5-c]pyrimidine], in test [1], the “Total score (catalepsy)” value was determined as 37, the “Number of Animals showing remission” value was determined as 5 and the “Remission ratio (%)” value was 26%. For the same compound, on adenosine A2A receptor, the inhibition at 0.1 µM came out at 89% and the inhibition at 0.01 µM turned out to be 71%. In test [2], the “Total score (catalepsy)” value is 21, the “Number of Animals showing remission” value is reported as 9 and the inhibition in vivo at 10 mg/kg was determined as 54%.
For `CCNC(=O)c1cnc(N)n2nc(-c3ccco3)nc12` [Compound 169, 5-Amino-8-ethylcarbamoyl-2-(2-furyl)[1,2,4]triazolo[1,5-c]pyrimidine], on adenosine A2A receptor, the inhibition at 0.1 µM came out at 96%. Moreover, in test [2], the “Total score (catalepsy)” value was 9, the “Number of Animals showing remission” value was 10 and the inhibition in vivo at 10 mg/kg was found to be 82%.
As to `Nc1nc(N2CCN(c3ccccn3)CC2)cc2nc(-c3ccco3)nn12` [Compound 93, 5-Amino-2-(2-furyl)-7-(4-(2-pyridyl)piperazinyl)[1,2,4]triazolo[1,5-c]pyrimidine], the inhibition at 0.1 µM at adenosine A2A receptor came out at 36%. For the same compound, in test [2], the “Total score (catalepsy)” value is 10, the “Number of Animals showing remission” value amounted to 8 and the inhibition in vivo at 10 mg/kg was 66%.
On the same counts, the results for `CC(O)CN1CCN(c2cc3nc(-c4ccco4)nn3c(N)n2)CC1` (racemic) [Compound 105, (±)-5-Amino-2-(2-furyl)-7-(4-(2-hydroxypropyl)piperazinyl)[1,2,4]triazolo[1,5-c]pyrimidine] are 41%, 4, 10 and 92%.
Take `C[C@@H]1CN(c2cc3nc(-c4ccco4)nn3c(N)n2)C[C@H](C)N1CCO` [Compound 120, 5-Amino-7-(cis-3,5-dimethyl-4-(2-hydroxyethyl)piperazinyl)-2-(2-furyl)[1,2,4]triazolo[1,5-c]pyrimidine]: the inhibition at 0.1 µM on adenosine A2A receptor is 29%. In test [2], the “Total score (catalepsy)” value was found to be 3, the “Number of Animals showing remission” value was found to be 10 and the inhibition in vivo at 10 mg/kg turned out to be 94%.
On the same counts, the results for `Nc1nc(N2CCN(CCCF)CC2)cc2nc(-c3ccco3)nn12` [Compound 127, 5-Amino-7-(4-(3-fluoropropyl)piperazinyl)-2-(2-furyl)[1,2,4]triazolo[1,5-c]pyrimidine] are 59%, 3, 10 and 96%.
With `COc1ccc(OC)c(CN2CCN(c3cc4nc(-c5ccco5)nn4c(N)n3)CC2)c1` [Compound 75, 5-Amino-7-((2,5-dimethoxybenzyl)piperazinyl)-2-(2-furyl)[1,2,4]triazolo[1,5-c]pyrimidine], at adenosine A2A receptor, the inhibition at 0.1 µM came out at 84%. Also, in test [2], the “Total score (catalepsy)” value was 10, the “Number of Animals showing remission” value is on record as 9 and the inhibition in vivo at 10 mg/kg stood at 76%.
Taken in the same sequence, the figures for `Nc1nc(N2CCN(Cc3ccccn3)CC2)cc2nc(-c3ccco3)nn12` [Compound 84, 5-Amino-2-(2-furyl)-7-(4-(2-picolyl)piperazinyl)[1,2,4]triazolo[1,5-c]pyrimidine] were 63%, 9, 9 and 78%.
`Nc1nc(Oc2ccc(Cl)cc2)cc2nc(-c3ccco3)nn12` [Compound 35, 5-Amino-7-(4-chlorophenoxy)-2-(2-furyl)[1,2,4]triazolo[1,5-c]pyrimidine]: at adenosine A2A receptor, the inhibition at 0.1 µM was found to be 82% and the inhibition at 0.01 µM turned out to be 43%. In addition, in test [2], the “Total score (catalepsy)” value is 15, the “Number of Animals showing remission” value was determined as 8 and the inhibition in vivo at 10 mg/kg was determined as 66%.
As for `C=CCN1CCN(c2cc3nc(-c4ccco4)nn3c(N)n2)CC1` [Compound 124, 5-Amino-7-(4-allylpiperazinyl)-2-(2-furyl)[1,2,4]triazolo[1,5-c]pyrimidine], the inhibition at 0.1 µM at adenosine A2A receptor came out at 59%. In test [2], the “Total score (catalepsy)” value is 12, the “Number of Animals showing remission” value is 9 and the inhibition in vivo at 10 mg/kg was found to be 76%.
With `CC(C)C(=O)c1cnc(N)n2nc(-c3ccco3)nc12` [Compound 153, 5-Amino-8-(1-oxo-2-methylpropyl)-2-(2-furyl)[1,2,4]triazolo[1,5-c]pyrimidine], on adenosine A2A receptor, the inhibition at 0.1 µM was 48%. Further, in test [2], the “Total score (catalepsy)” value was 10, the “Number of Animals showing remission” value amounted to 9 and the inhibition in vivo at 10 mg/kg came to 80%.
In the case of `CC(C)OCCCN1CCN(c2cc3nc(-c4ccco4)nn3c(N)n2)CC1` [Compound 101, 5-Amino-2-(2-furyl)-7-(4-(3-isopropoxypropyl)piperazinyl)[1,2,4]triazolo[1,5-c]pyrimidine], the inhibition at 0.1 µM at adenosine A2A receptor is 46%. Moreover, in test [2], the “Total score (catalepsy)” value is 8, the “Number of Animals showing remission” value turned out to be 10 and the inhibition in vivo at 10 mg/kg is 82%.
For the compound `CCOCCN1CCN(c2cc3nc(-c4ccco4)nn3c(N)n2)CC1` [Compound 96, 5-Amino-7-(4-(2-ethoxyethyl)piperazinyl)-2-(2-furyl)[1,2,4]triazolo[1,5-c]pyrimidine], the inhibition at 0.1 µM at adenosine A2A receptor is 58%. For the same compound, in test [2], the “Total score (catalepsy)” value was found to be 7, the “Number of Animals showing remission” value is 9 and the inhibition in vivo at 10 mg/kg worked out at 86%.

The record behind these values is patent publication US6222035A, “[1,2,4] triazolo [1,5-C] pyrimidine derivatives” (Kyowa Hakko Kogyo Co., Ltd., priority 1997, dated 2001).
